Laboratory results from the NIST ThermoML archive (doi:10.1021/je300799f).
± gives the expanded uncertainty stated by the source.

Legend:
[1] = xn = mol fraction of the nth substance listed; settings: 101 kPa, Liquid, Vibrating tube method, x2 = 0
[2] = Liquid; for mass density: 101.3 kPa, Vibrating tube method; for vapor or sublimation pressure: Ebulliometric method (Recirculating still)
[3] = refractive index (Na D-line) (dimensionless); settings: 298.15 K; 101.33 kPa; Liquid; Standard Abbe refractometry

CCCCCCCCC [nonane] + CCCC(=O)OCC
[1]
Settings	mass density [kg/m3]
288.15 K	721.65 ± 0.24
298.15 K	713.85 ± 0.25
308.15 K	705.96 ± 0.25
318.15 K	698.06 ± 0.25
328.15 K	690.17 ± 0.25

CCCCCCCCC [nonane]
[2]
Settings	mass density [kg/m3]	vapor or sublimation pressure [kPa]
288.15 K	721.65 ± 0.24	–
298.15 K	713.85 ± 0.25	–
308.15 K	705.96 ± 0.25	–
318.15 K	698.06 ± 0.25	–
328.15 K	690.17 ± 0.25	–
395.53 K	–	45 ± 0.07
397.25 K	–	47.5 ± 0.07
398.89 K	–	50 ± 0.07
400.5 K	–	52.5 ± 0.07
402.04 K	–	55 ± 0.08
403.51 K	–	57.5 ± 0.08
404.94 K	–	60 ± 0.08
406.33 K	–	62.5 ± 0.08
407.66 K	–	65 ± 0.09
408.95 K	–	67.5 ± 0.09
410.24 K	–	70 ± 0.09
411.45 K	–	72.5 ± 0.09
412.64 K	–	75 ± 0.1
413.81 K	–	77.5 ± 0.1
414.94 K	–	80 ± 0.1
416.07 K	–	82.5 ± 0.1
417.16 K	–	85 ± 0.11
418.22 K	–	87.5 ± 0.11
419.24 K	–	90 ± 0.11
420.25 K	–	92.5 ± 0.11
421.24 K	–	95 ± 0.12
422.22 K	–	97.5 ± 0.12
423.18 K	–	100 ± 0.12
423.87 K	–	101.32 ± 0.12
423.9 K	–	101.32 ± 0.46
425.1 K	–	105 ± 0.13
426.76 K	–	110 ± 0.13
428.48 K	–	115 ± 0.14
430.15 K	–	120 ± 0.14
431.71 K	–	125 ± 0.15
433.28 K	–	130 ± 0.15
434.77 K	–	135 ± 0.16
436.25 K	–	140 ± 0.16
437.64 K	–	145 ± 0.17
439.03 K	–	150 ± 0.17
440.38 K	–	155 ± 0.18
441.68 K	–	160 ± 0.18
442.99 K	–	165 ± 0.19
444.25 K	–	170 ± 0.19
445.46 K	–	175 ± 0.2
446.65 K	–	180 ± 0.2
447.83 K	–	185 ± 0.21
448.99 K	–	190 ± 0.21
450.12 K	–	195 ± 0.22
451.2 K	–	200 ± 0.22
452.29 K	–	205 ± 0.23
453.35 K	–	210 ± 0.23
454.41 K	–	215 ± 0.24
455.44 K	–	220 ± 0.25
456.45 K	–	225 ± 0.25
457.45 K	–	230 ± 0.26
458.43 K	–	235 ± 0.26
459.41 K	–	240 ± 0.27
460.35 K	–	245 ± 0.27
461.28 K	–	250 ± 0.28
462.19 K	–	255 ± 0.28
463.08 K	–	260 ± 0.29
463.95 K	–	265 ± 0.29
464.86 K	–	270 ± 0.3
465.73 K	–	275 ± 0.3
466.59 K	–	280 ± 0.31

Settings	refractive index
[3]	1.4032 ± 0.0005

CCCCCCC [heptane]
[2]
Settings	mass density [kg/m3]	vapor or sublimation pressure [kPa]
288.15 K	688.16 ± 0.25	–
298.15 K	679.62 ± 0.25	–
308.15 K	670.96 ± 0.25	–
318.15 K	662.33 ± 0.25	–
328.15 K	653.61 ± 0.25	–
346.23 K	–	45 ± 0.07
347.76 K	–	47.5 ± 0.07
349.29 K	–	50 ± 0.07
350.7 K	–	52.5 ± 0.08
352.07 K	–	55 ± 0.08
353.41 K	–	57.5 ± 0.08
354.69 K	–	60 ± 0.08
355.94 K	–	62.5 ± 0.09
357.14 K	–	65 ± 0.09
358.32 K	–	67.5 ± 0.09
359.45 K	–	70 ± 0.09
360.54 K	–	72.5 ± 0.1
361.61 K	–	75 ± 0.1
362.66 K	–	77.5 ± 0.1
363.68 K	–	80 ± 0.1
364.71 K	–	82.5 ± 0.11
365.65 K	–	85 ± 0.11
366.61 K	–	87.5 ± 0.11
367.53 K	–	90 ± 0.11
368.42 K	–	92.5 ± 0.12
369.32 K	–	95 ± 0.12
370.19 K	–	97.5 ± 0.12
371.07 K	–	100 ± 0.12
371.38 K	–	101.32 ± 0.46
371.51 K	–	101.32 ± 0.13
372.72 K	–	105 ± 0.13
374.31 K	–	110 ± 0.13
375.85 K	–	115 ± 0.14
377.34 K	–	120 ± 0.14
378.77 K	–	125 ± 0.15
380.18 K	–	130 ± 0.16
381.52 K	–	135 ± 0.16
382.84 K	–	140 ± 0.17
384.13 K	–	145 ± 0.17
385.36 K	–	150 ± 0.18
386.6 K	–	155 ± 0.18
387.78 K	–	160 ± 0.19
388.94 K	–	165 ± 0.19
390.08 K	–	170 ± 0.2
391.17 K	–	175 ± 0.2
392.25 K	–	180 ± 0.21
393.3 K	–	185 ± 0.21
394.34 K	–	190 ± 0.22
395.37 K	–	195 ± 0.22
396.37 K	–	200 ± 0.23
397.35 K	–	205 ± 0.23
398.29 K	–	210 ± 0.24
399.24 K	–	215 ± 0.24
400.17 K	–	220 ± 0.25
401.07 K	–	225 ± 0.26
401.97 K	–	230 ± 0.26
402.84 K	–	235 ± 0.27
403.72 K	–	240 ± 0.27
404.57 K	–	245 ± 0.28
405.42 K	–	250 ± 0.28
406.25 K	–	255 ± 0.29
407.05 K	–	260 ± 0.29
407.87 K	–	265 ± 0.3
408.65 K	–	270 ± 0.3
409.42 K	–	275 ± 0.31
410.22 K	–	280 ± 0.31

Settings	refractive index
[3]	1.3853 ± 0.0005

CCCCCCC [heptane] + CCCC(=O)OC
[1]
Settings	mass density [kg/m3]
288.15 K	688.16 ± 0.25
298.15 K	679.62 ± 0.25
308.15 K	670.96 ± 0.25
318.15 K	662.33 ± 0.25
328.15 K	653.61 ± 0.25

CCCCCCCCC [nonane] + CCCC(=O)OC
[1]
Settings	mass density [kg/m3]
288.15 K	721.65 ± 0.24
298.15 K	713.85 ± 0.25
308.15 K	705.96 ± 0.25
318.15 K	698.06 ± 0.25
328.15 K	690.17 ± 0.25

CCCC(=O)OC [methyl butanoate]
[2]
Settings	mass density [kg/m3]	vapor or sublimation pressure [kPa]
288.15 K	903.31 ± 0.23	–
298.15 K	892.31 ± 0.23	–
308.15 K	881.19 ± 0.24	–
318.15 K	870.06 ± 0.24	–
328.15 K	858.8 ± 0.24	–
354.1 K	–	50 ± 0.07
355.47 K	–	52.5 ± 0.08
356.79 K	–	55 ± 0.08
358.1 K	–	57.5 ± 0.08
359.34 K	–	60 ± 0.08
360.56 K	–	62.5 ± 0.09
361.72 K	–	65 ± 0.09
362.84 K	–	67.5 ± 0.09
363.94 K	–	70 ± 0.09
364.99 K	–	72.5 ± 0.1
366.05 K	–	75 ± 0.1
367.04 K	–	77.5 ± 0.1
368.03 K	–	80 ± 0.1
369 K	–	82.5 ± 0.11
370.01 K	–	85 ± 0.11
370.93 K	–	87.5 ± 0.11
371.84 K	–	90 ± 0.11
372.72 K	–	92.5 ± 0.12
373.58 K	–	95 ± 0.12
374.42 K	–	97.5 ± 0.12
375.27 K	–	100 ± 0.12
375.74 K	–	101.32 ± 0.13
376.91 K	–	105 ± 0.13
378.42 K	–	110 ± 0.14
379.91 K	–	115 ± 0.14
381.34 K	–	120 ± 0.15
382.73 K	–	125 ± 0.15
384.07 K	–	130 ± 0.16
385.37 K	–	135 ± 0.16
386.63 K	–	140 ± 0.17
387.87 K	–	145 ± 0.17
389.07 K	–	150 ± 0.18
390.24 K	–	155 ± 0.18
391.38 K	–	160 ± 0.19
392.48 K	–	165 ± 0.19
393.58 K	–	170 ± 0.2
394.64 K	–	175 ± 0.2
395.67 K	–	180 ± 0.21
396.7 K	–	185 ± 0.21
397.68 K	–	190 ± 0.22
398.67 K	–	195 ± 0.23
399.61 K	–	200 ± 0.23
400.54 K	–	205 ± 0.24
401.46 K	–	210 ± 0.24
402.37 K	–	215 ± 0.25
403.25 K	–	220 ± 0.25
404.13 K	–	225 ± 0.26
404.97 K	–	230 ± 0.26
405.81 K	–	235 ± 0.27
406.64 K	–	240 ± 0.27
407.45 K	–	245 ± 0.28
408.26 K	–	250 ± 0.28
409.05 K	–	255 ± 0.29
409.83 K	–	260 ± 0.29
410.58 K	–	265 ± 0.3
411.35 K	–	270 ± 0.3
412.09 K	–	275 ± 0.31
412.83 K	–	280 ± 0.31

Settings	refractive index
[3]	1.3851 ± 0.0005

CCCC(=O)OCC [ethyl butanoate]
[2]
Settings	mass density [kg/m3]	vapor or sublimation pressure [kPa]
288.15 K	884.01 ± 0.23	–
298.15 K	873.5 ± 0.24	–
308.15 K	862.85 ± 0.24	–
318.15 K	852.26 ± 0.24	–
328.15 K	841.55 ± 0.24	–
377.33 K	–	60 ± 0.08
378.63 K	–	62.5 ± 0.09
379.81 K	–	65 ± 0.09
380.99 K	–	67.5 ± 0.09
382.1 K	–	70 ± 0.09
383.23 K	–	72.5 ± 0.1
384.31 K	–	75 ± 0.1
385.34 K	–	77.5 ± 0.1
386.35 K	–	80 ± 0.1
387.34 K	–	82.5 ± 0.11
388.31 K	–	85 ± 0.11
389.25 K	–	87.5 ± 0.11
390.17 K	–	90 ± 0.11
391.06 K	–	92.5 ± 0.12
391.94 K	–	95 ± 0.12
392.81 K	–	97.5 ± 0.12
393.66 K	–	100 ± 0.12
394.26 K	–	101.32 ± 0.12
394.31 K	–	101.32 ± 0.51
395.43 K	–	105 ± 0.13
397.05 K	–	110 ± 0.13
398.57 K	–	115 ± 0.14
400.1 K	–	120 ± 0.14
401.54 K	–	125 ± 0.15
402.99 K	–	130 ± 0.15
404.34 K	–	135 ± 0.16
405.62 K	–	140 ± 0.17
406.96 K	–	145 ± 0.17
408.22 K	–	150 ± 0.18
409.45 K	–	155 ± 0.18
410.61 K	–	160 ± 0.19
411.77 K	–	165 ± 0.19
412.95 K	–	170 ± 0.2
414.05 K	–	175 ± 0.21
415.01 K	–	180 ± 0.21
416.08 K	–	185 ± 0.21
417.14 K	–	190 ± 0.22
418.15 K	–	195 ± 0.22
419.14 K	–	200 ± 0.23
420.12 K	–	205 ± 0.23
421.1 K	–	210 ± 0.24
422.01 K	–	215 ± 0.25
422.94 K	–	220 ± 0.25
423.85 K	–	225 ± 0.25
424.79 K	–	230 ± 0.26
425.67 K	–	235 ± 0.27
426.53 K	–	240 ± 0.27
427.35 K	–	245 ± 0.28
428.2 K	–	250 ± 0.28
429.04 K	–	255 ± 0.29
429.84 K	–	260 ± 0.29
430.65 K	–	265 ± 0.3
431.42 K	–	270 ± 0.3
432.23 K	–	275 ± 0.31
433 K	–	280 ± 0.31

Settings	refractive index
[3]	1.3898 ± 0.0005

CCCCCCC [heptane] + CCCC(=O)OCC
[1]
Settings	mass density [kg/m3]
288.15 K	688.16 ± 0.25
298.15 K	679.62 ± 0.25
308.15 K	670.96 ± 0.25
318.15 K	662.33 ± 0.25
328.15 K	653.61 ± 0.25
